“Also recorded” adds a separate entry of the source.
What was measured:
ARP1 MM cells = assay: Human myeloma xenograft mice, tumor burden by IVIS and survival; assay type: in vivo, NOD.Cγ-Rag1 mice; conditions: for MM cell growth (tumor burden) compared to the control group: p<0.05, melphalan, carfilzomib, bortezomib 3 mg/kg, 3 weeks
Description: NOD.Cγ-Rag1 mice 6-8 weeks old (Jackson laboratory, Bar Harbor, Me.) were injected intravenously with ARP1 MM cells (1×10^6) expressing luciferase. […] Bortezomib (3 mg/kg) was injected intraperitoneal once a day, 2 days a week for 3 weeks. The mice were euthanized when humane endpoint was reached.
Xenogen IVIS-200 an in vivo imaging system (IVIS) was used to analyze tumor burden and was indicated by quantification of luciferase intensity of mice pre- and post-treatments.
GEP data were analyzed by One-Way Anova test using log 2 transformed Affymetrix Signals and presented by boxplot. The comparisons of tumor burden were analyzed either by student t-test (2 groups) or by One-Way Anova test (>2 groups). Kaplan-Meier method was performed for survival with the use of SPSS 16.0 software (SPSS, Chicago, Ill.). Two-tailed p value at an alpha level of 0.05 was considered to indicate statistical significance. Graphs were generated using Prism 6 software.

AIF1 [1] = assay: Western blot of AIF1 cleavage in OCI-MY5 cells; assay type: cell-based, human; conditions: OCI-MY5 cells (FIG. 4C); melphalan 0-80 μM 4 hrs
Description: (§1) FIGS. 4A-4E. […] (FIG. 4A) Top bar graph represents OCI-MY5 shRNA-Scramble and shRNA-AIF1 cells incubated with doxycycline to knockdown AIF1 for 2 days. Bottom bar graph represents OCI-MY5 EV and OCI-MY5 OE-AIF1 cells. […] Knockdown and overexpression of AIF1 was confirmed by western blots. […] AIF1, β-actin and γ-H2AX levels were analyzed by western blots. […] AIF1 and β-actin levels were analyzed by western blots. […] N, M, C respectively represent nucleus, mitochondria and cytoplasm. Blue arrows indicate the nuclear membrane and red arrowheads indicate AIF1 gold beads in cytoplasm or mitochondria. Black arrowheads indicate AIF1 gold beads in nuclei.
(§2) Cells were harvested and lysed with lysis buffer: 150 mM NaCl, 10 mM EDTA, 10 mM Tris, pH 7.4, 1% X-100 Triton. Cell lysates were subjected to SDS-PAGE, transferred onto a pure nitrocellulose membrane (BioRad), and blocked with 5% fat-free milk. […] Membranes were incubated with horseradish peroxidase (HRP)-conjugated anti-mouse secondary antibody (1:10,000, Santa Cruz Biotechnology, cat #: sc-2005) or anti-rabbit secondary antibody (1:10,000, AnaSpec Inc., cat #: AS-28177) for 1 h and chemi-luminescence signals were detected by HRP substrate (EMD Millipore).

γ-H2AX = assay: Western blot of phosphorylated γ-H2AX in OCI-MY5 cells; assay type: cell-based, human; conditions: OCI-MY5 (FIG. 4C); melphalan alone at high dose, with PAA at lower dose
Description: as §1, §2

[2] = tested on: ARP1 MM cells with TRIP13 overexpression; assay: Cell viability of ARP1 cells with TRIP13-OE or EV under drug treatment; assay type: cell-based, human; conditions: for response of TRIP13-OE ARP1 cells to drug: ARP1-OE vs ARP1-EV, different doses (FIGS. 37A, 37B)
AIF1 [3] = assay: Western blot of nuclear AIF1 in ARP1 MM cell line; assay type: cell-based, human; conditions: TRIP13N and TRIP13OE MM cells (FIG. 38D)
OCI-MY5 cells = assay: OCI-MY5 cell viability after 1 hr PAA treatment; assay type: cell-based, human; conditions: for effect of pre-treatment on PAA-induced cell death: OCI-MY5, catalase 100 U/ml, NAC 15 mM, DFO 200 μM or BCS 10 μM for 3 hrs before PAA, viability 24 hrs later
Description: FIGS. 2A-2D. […] OCI-MY5 EV (FIG. 2C) and OCI-MY5 OE-Fpn1 (FIG. 2D) were incubated with or without iron (Fe-NTA (FE), 100 μM).
as §1
FIGS. 9A-9B. […] (FIG. 9B) Total RNA was extracted from OCI-MY5 EV and OE cells and Fpn1 mRNA was analyzed by Real time RT-PCR.
Human myeloma cell lines (ARP1, OCI-MY5 and their derivative cell lines) were cultured in RPMI 1640 (Invitrogen, Carlsbad, Calif.), supplemented with 10% heat-inactivated FBS (Invitrogen), penicillin (100 IU/mL), and streptomycin (100 μg/mL) in a humidified incubator at 37° C. and 5% CO2/95% air. To increase cellular iron concentration, ferric nitrilotriacatate (Fe-NTA) was used.

[4] = tested on: KMS11, ARK and ARP1 cells; assay: Erastin growth inhibition, PrestoBlue assay; assay type: cell-based, human; conditions: ferrostatin (Fer-1) 1 μM with 10 μM Erastin, 48 hours
Description: FIG. 23. Erastin Inhibits MM Cells Growth. KMS11, ARK and ARP1 cells were treated with 10 μM Erastin with or without ferrostatin (Fer-1) at 1 μM for 48 hours. Cell proliferation was measured by PrestoBlue assay and normalized to control cells to calculated growth inhibition.

CD138+ MM cells = assay: Pharmacological Ascorbic Acid viability assay (Trypan Blue), CD138+ cells from patients; assay type: cell-based, human
Description: (§3) CD138^+ MM cells and CD138^− non-MM cells were isolated from MGUS, SMM, and MM patient samples using anti-CD138 immunomagnetic beads (Miltenyl Biotec, Auburn, Calif.). […] After incubation, the cells were washed and cultured up to 24 h. Cell counts and viable cell number were determined using Trypan Blue staining.

CD138- non-MM cells = assay: Pharmacological Ascorbic Acid viability assay (Trypan Blue), CD138- cells from patients; assay type: cell-based, human; conditions: CD138- BM cells from the same MM patients
Description: as §3, with “Pharmacological Ascorbic Acid (PAA) was kindly provided by Dr. Garry R. Buettner (University of Iowa). CD138^+” for “CD138^+”

OCI-MY5 WT cells = assay: Transmission electron microscopy of PAA-treated OCI-MY5 WT cells; assay type: cell-based, human; conditions: 4 mM PAA one hour, fixed after 60 and 120 min
Description: (§4) FIGS. 3A-3B. […] Red boxes represent zooming image of mitochondria in OCI-MY5 WT cells (left) and OCI-MY5 WT cells treated with PA (right).
(§5) Electron microscopy was performed by the Central Microscopy Research Facility personnel at the University of Iowa. Images were captured on JEOL JEM 1230.

caspases 3, 8, and 9 = assay: Western blot of caspases in OCI-MY5 WT cells; assay type: cell-based, human; conditions: OCI-MY5 WT after PAA (FIG. 3B)
Description: as §4
(§6) Cells were harvested and lysed with lysis buffer: 150 mM NaCl, 10 mM EDTA, 10 mM Tris, pH 7.4, 1% X-100 Triton. Cell lysates were subjected to SDS-PAGE, transferred onto a pure nitrocellulose membrane (BioRad), and blocked with 5% fat-free milk. Primary antibodies for immunoblotting included: anti-AIF1 (1:1000, Cell Signaling), anti-RIP (1:1000, Santa Cruz Biotechnology), anti-RIP3 (1:1000, Cell Signaling), anti-Caspase3 (1:1000, Cell Signaling), anti-Caspase 8 (1:1000, Cell Signaling), anti-Caspase 9 (1:1000, Cell Signaling) Phosphorylated γH2AX (1:1000, Enzo Life Sciences), and β-actin (1:1000, Cell Signaling) as loading control. Membranes were incubated with horseradish peroxidase (HRP)-conjugated anti-mouse secondary antibody (1:10,000, Santa Cruz Biotechnology, cat #: sc-2005) or anti-rabbit secondary antibody (1:10,000, AnaSpec Inc., cat #: AS-28177) for 1 h and chemi-luminescence signals were detected by HRP substrate (EMD Millipore).

RIP1 and RIP3 = assay: Western blot of RIP1 and RIP3 in OCI-MY5 WT cells; assay type: cell-based, human; conditions: OCI-MY5 WT after PAA (FIG. 3B)
Description: as §4, §6

AIF1 [5] = assay: AIF1 immunolabeling electron microscopy in OCI-MY5 cells; assay type: cell-based, human; conditions: OCI-MY5, PAA 2 mM (FIG. 4E)
Description: as §1, §5

[6] = intraperitoneal administration of 4 g ascorbate per kilogram of body weight; cited from earlier work
[7] = cited from earlier work

## N[C@@H](Cc1ccc(N(CCCl)CCCl)cc1)C(=O)O [melphalan]
ARP1 MM cells; FIG. 1D, PAA 4 mg/kg
  MM cell growth (tumor burden) compared to the control group: inhibited MM cell growth significantly
ARP1 MM cells; FIG. 1D, single agents vs combination
  tumor burden compared among treatments: higher decrease in tumor burden
ARP1 MM cells; highest dose of melphalan, single agent
  time at which presence of tumor was detected: only after four weeks
ARP1 MM cells; melphalan 1, 3, 5 mg/kg with or without PAA (FIGS. 1E, 1F)
  tumor burden at three weeks of treatment: inhibit tumor growth better than PAA alone
ARP1 MM cells; single agent melphalan 3 and 5 mg/kg (FIG. 1G)
  MM mouse survival, compared with PAA alone: extended MM mouse survival
AIF1 [1]
  AIF1 cleavage by western blotting: not able to induce AIF1 cleavage
γ-H2AX
  phosphorylated γ-H2AX level: induced γ-H2AX

## CC(C)C[C@H](NC(=O)[C@H](Cc1ccccc1)NC(=O)c1cnccn1)B(O)O [bortezomib]
ARP1 MM cells; FIG. 1D, PAA 4 mg/kg
  MM cell growth (tumor burden) compared to the control group: inhibited MM cell growth significantly
[2]; ARP1, 24 h, p<0.05 (FIGS. 27E, 27F)
  growth inhibition in TRIP13-OE MM cells compared with EV controls: significantly less growth inhibition
[2]
  response of TRIP13-OE ARP1 cells to drug: resistant
AIF1 [3]
  AIF1 nuclear translocation: does not increase AIF1 nuclear localization

## bathocuproinedisulfonic acid disodium salt [BCS]
OCI-MY5 cells
  effect of pre-treatment on PAA-induced cell death: not able to block cellular death

## CCOC(=O)c1ccc(NC2CCCCC2)c(N)c1 [ferrostatin]
[4]
  effect of ferroptosis inhibitor on erastin growth inhibition: can be reversed

## CC(C)C[C@H](NC(=O)[C@H](CCc1ccccc1)NC(=O)CN1CCOCC1)C(=O)N[C@@H](Cc1ccccc1)C(=O)N[C@@H](CC(C)C)C(=O)[C@@]1(C)CO1 [carfilzomib]
ARP1 MM cells; FIG. 1D, PAA 4 mg/kg
  MM cell growth (tumor burden) compared to the control group: inhibited MM cell growth significantly

## O=C1O[C@H]([C@@H](O)CO)C(O)=C1O [PAA, ascorbic acid]
CD138+ MM cells; 2 MGUS patients (FIG. 1C)
  response to PAA of CD138+ cells from MGUS patients: almost no response
CD138+ MM cells; CD138+ cells from MM patients, PAA 1 hr, washed, cultured up to 24 h
  survival of CD138+ cells in vitro following PAA treatment: significantly decreased; also recorded: increased killing
CD138+ MM cells; cells from SMM patients (FIG. 1B)
  effect of PAA on cell viability in SMM patients: same effect
CD138- non-MM cells
  cell viability of CD138- BM cells following PAA treatment: no significant change
ARP1 MM cells; FIG. 1D, PAA 4 mg/kg
  MM cell growth (tumor burden) compared to the control group: inhibited MM cell growth significantly
ARP1 MM cells; PAA 4 mg/kg IP once a day, DFO 100 mg/Kg twice a week IP (FIG. 25)
  tumor burden with PAA in mice receiving iron chelator DFO at the same time: not able to decrease tumor burden
ARP1 MM cells; PAA 4 mg/kg, once per day, IP, 15 days vs saline
  tumor progression by IVIS: significantly delayed
OCI-MY5 cells; OCI-MY5 AIF1-shRNA (FIG. 4A top)
  viability after PAA treatment, AIF1-shRNA cells versus scrambled sequence: significantly higher
OCI-MY5 cells; OCI-MY5 EV cells
  PAA concentration able to kill cells: 4 mM
OCI-MY5 cells; OCI-MY5 OE-AIF1 (FIG. 4A bottom)
  viability after PAA treatment, OE-AIF1 cells versus empty vector: significantly less viability
OCI-MY5 cells; OCI-MY5 OE-Fpn1 cells
  PAA concentration required to successfully kill cells: 20 mM
OCI-MY5 WT cells
  type of cell death by TEM: early necrosis (FIG. 3A, 60 mins) followed by late apoptosis
Caspases 3, 8, and 9
  caspases 3, 8, and 9 activity (cleavage): marked increase
RIP1 and RIP3
  RIP1 and RIP3 cleavage: cleaved
AIF1 [1]
  AIF1 cleavage by western blotting: increase in the AIF1 cleaved form
γ-H2AX
  phosphorylated γ-H2AX level: induced γ-H2AX
AIF1 [5]
  cellular localization of AIF1: also in cytoplasm and nuclei
[2]
  response of TRIP13-OE ARP1 cells to drug: sensitive
AIF1 [3]
  AIF1 nuclear translocation: induces AIF1 nuclear translocation
[6]
  levels of ascorbate: 20000 to 40000 µM
  levels of ascorbyl radicals: 0.5 µM
[7]; IV, animals and humans
  safety and tolerability: safe and well tolerated
[7]; intravenous (IV) administration
  plasma concentrations from pharmacological doses: ≥ 10 mM

## O=C([O-])CN(CC(=O)[O-])CC(=O)[O-].[Fe+3] [Iron, ferric nitrilotriacatate]
OCI-MY5 cells; OCI-MY5 EV cells, Fe-NTA 100 μM 18 hrs (FIG. 2C)
  cell viability after iron pre-treatment and PAA: rapid decrease in cells viability
OCI-MY5 cells; OCI-MY5 OE-Fpn1 cells, Fe-NTA 100 μM 18 hrs (FIG. 2D)
  cell viability after iron pre-treatment and PAA: same effect

## catalase
OCI-MY5 cells
  effect of pre-treatment on PAA-induced cell death: resistant to PAA

## CC(=O)N[C@@H](CS)C(=O)O [NAC, N-acetyl cysteine]
OCI-MY5 cells
  effect of pre-treatment on PAA-induced cell death: resistant to PAA

Reference: patent US11298338B2, “Compositions and methods for cancer therapy” (UNIVERSITY OF IOWA RESEARCH FOUNDATION, priority 2016, dated 2022)
